Data: paper PMC6952396, “Structural basis for itraconazole-mediated NPC1 inhibition” (Nature Communications, 2020)
Read-outs that look alike come from different tables or passages of the source.

Biological target: T1, NPC1 (Cricetulus griseus, UniProt Q9JLG3)
T1 construct: CHO-7 cells in the medium are deprived of cholesterol to induce the LDL receptors biosynthesis; endogenous in cells; host or cells: CHO-7 cells
T1 sequence (Q9JLG3 23-1277): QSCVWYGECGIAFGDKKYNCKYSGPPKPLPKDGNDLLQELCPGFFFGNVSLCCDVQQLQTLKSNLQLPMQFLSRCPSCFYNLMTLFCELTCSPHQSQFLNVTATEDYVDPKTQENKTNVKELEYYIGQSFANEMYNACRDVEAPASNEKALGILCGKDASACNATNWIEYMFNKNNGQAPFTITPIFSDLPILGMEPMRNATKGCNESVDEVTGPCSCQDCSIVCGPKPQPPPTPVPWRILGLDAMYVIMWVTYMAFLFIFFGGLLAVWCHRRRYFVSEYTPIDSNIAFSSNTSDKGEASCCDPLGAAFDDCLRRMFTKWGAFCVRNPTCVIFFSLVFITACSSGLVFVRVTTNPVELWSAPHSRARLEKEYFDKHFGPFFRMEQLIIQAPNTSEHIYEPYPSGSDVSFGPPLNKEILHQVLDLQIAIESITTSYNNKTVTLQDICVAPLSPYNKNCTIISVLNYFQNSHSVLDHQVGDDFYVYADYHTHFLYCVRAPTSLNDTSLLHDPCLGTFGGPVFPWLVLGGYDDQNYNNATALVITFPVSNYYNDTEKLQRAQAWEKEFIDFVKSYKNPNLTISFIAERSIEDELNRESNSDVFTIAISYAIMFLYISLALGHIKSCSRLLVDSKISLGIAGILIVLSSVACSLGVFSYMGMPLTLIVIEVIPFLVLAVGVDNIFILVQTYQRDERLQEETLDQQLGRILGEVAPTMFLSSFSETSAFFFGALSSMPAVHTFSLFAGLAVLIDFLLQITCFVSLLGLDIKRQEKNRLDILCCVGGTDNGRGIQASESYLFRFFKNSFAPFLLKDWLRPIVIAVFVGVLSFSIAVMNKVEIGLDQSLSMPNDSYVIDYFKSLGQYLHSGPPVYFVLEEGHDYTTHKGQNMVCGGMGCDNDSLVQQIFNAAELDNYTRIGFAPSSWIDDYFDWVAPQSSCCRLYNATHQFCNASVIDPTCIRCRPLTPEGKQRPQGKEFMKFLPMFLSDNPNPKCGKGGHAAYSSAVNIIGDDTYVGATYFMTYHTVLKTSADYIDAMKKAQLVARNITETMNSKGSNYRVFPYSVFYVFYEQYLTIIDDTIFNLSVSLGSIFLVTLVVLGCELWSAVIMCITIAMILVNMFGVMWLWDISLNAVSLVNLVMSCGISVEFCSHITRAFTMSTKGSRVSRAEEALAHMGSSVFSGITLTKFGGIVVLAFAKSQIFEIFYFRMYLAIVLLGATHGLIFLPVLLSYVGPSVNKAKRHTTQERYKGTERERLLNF
Experiment: Cholesterol re-esterification (ACAT) assay measuring NPC1-mediated export of cholesterol from lysosomes in CHO-7 cells
Assay type: cell-based
Settings: for cholesteryl [14C] oleate formed, Repeat 1 / cholesteryl [14C] oleate formed, Repeat 2: Fig. 2 source data; for cholesteryl [14C] oleate formed, Repeat 3 / cholesteryl [14C] oleate formed, Repeat 4: Supplementary Fig. 3 source data
Source text: Itraconazole has three chiral centers (Supplementary Fig. 2a). The pharmaceutical form contains four cis-stereoisomers in a 1:1:1:1 molar ratio (Supplementary Fig. 2a–d). To determine the activity of the cis-stereoisomers, the individual isomers were isolated and identified based on their optical rotation in chloroform following a previous report (Supplementary Fig. 2e)[26]. Then, they were separately tested in a cholesterol re-esterification assay used to measure NPC1-mediated export of cholesterol from lysosomes. Briefly, CHO-7 cells in the medium are deprived of cholesterol to induce the LDL receptors biosynthesis. The cells are then incubated with fetal calf serum (FCS) that contains LDL. The LDL-derived cholesterol will now be transported by functional NPC1 protein from the lysosome to the endoplasmic reticulum (ER). The acyl-CoA:cholesterol actyltransferase named ACAT can now re-esterify the cholesterol in the ER. Therefore, the cells were pulse-labeled with [^14C] oleate and we can measure the synthesis of cholesteroyl [^14C] oleate to evaluate the activity of NPC1 protein. Using this assay, we tested the ability of various itraconazole to inhibit NPC1 activity.
Fig. 2 ACAT activity of itraconazole and ketoconazole in CHO-7 cells. On day 0, CHO-7 cells were set up in medium A with 5% LPDS at 2.5 × 10^5 cells/well in 6-well dish. On day 2, cells were switched to medium A with 5% LPDS containing 50 µM sodium compactin and 50 µM sodium mevalonate. On day 3 the cells received fresh medium B containing compactin and mevalonate with various concentration compounds in the presence of 10% FCS containing lipoproteins. After incubation for 4 h at 37 °C, each cell monolayer was pulse-labeled for 2 h with 0.1 mM sodium [^14C] oleate (5792 dpm/nmol). The cells were then harvested for measurement of their content of cholesteryl [^14C] oleate and [^14C] triglycerides, as described in Methods. […] Itraconazole mixture, isomer A (Supplementary Fig. 2a), isomer B (Supplementary Fig. 2b) and isomer C (Supplementary Fig. 2c) were added at final concentrations of 0.3 μM. The isomer D (Supplementary Fig. 2d), I-Br and ketoconazole were added at final concentrations of 1 μM. The biological repeats are shown as individual values. Source data are provided as a Source Data file.
On day 0, cells were set up in medium A with 5% LPDS at 2.5 × 10^5 cells/well in six-well dish. On day 2, cells were switched to medium A with 5% LPDS containing 50 µM sodium compactin and 50 µM sodium mevalonate. On day 3 the cells received fresh medium B containing compactin and mevalonate with indicated concentration triazole compounds in the presence of 10% FCS containing lipoproteins. After incubation for 4 h at 37 °C, each cell monolayer was pulse-labeled for 2 h with 0.1 mM sodium [^14C] oleate (5792 dpm/nmol). The cells were then harvested for measurement of their content of cholesteryl [^14C] oleate and [^14C] triglycerides.
The rate of incorporation of [^14C] oleate into cholesteryl [^14C] oleate and [^14C] triglycerides by monolayers of NPC1^−/− cells and CHO-7 cells was measured as described previously. In brief, cells were switched to medium containing LPDS supplemented with compactin and mevolonate at 16 h before the experiments. On the day of the experiment, cells were incubated for 4 h with fresh medium containing FCS as a source of cholesterol-containing lipoproteins. Cells were then pulse –labeled for 2 h with 0.1 mM sodium [^14C] oleate. Cells were then washed, and the lipids were extracted in hexane:isopropanol (3:2, vol:vol), separated on a silica gel G thin-layer chromatogram (developed in heptane:ethylether:acetic acid, 90:30:1), and quantified by scintillation counting with the use of an internal standard for recovery.

For `CCC(C)n1ncn(-c2ccc(N3CCN(c4ccc(OCC5COC(Cn6cncn6)(c6ccc(Cl)cc6Cl)O5)cc4)CC3)cc2)c1=O` (stereo not drawn) [Itra-A], the “cholesteryl [14C] oleate formed, Repeat 1” value (“cholesteryl … Repeat 1” for short) (0.01 uM compound) was 3.345 nanomoles formed per hour per milligram cell protein, the “cholesteryl [14C] oleate formed, Repeat 2” value (“cholesteryl … Repeat 2” for short) (0.01 uM compound) was 3.639 nanomoles formed per hour per milligram cell protein and the “cholesteryl [14C] oleate formed, Repeat 3” value (“cholesteryl … Repeat 3” for short) (0.01 uM compound) was 4.944 nanomoles formed per hour per milligram cell protein. For the same molecule, the “cholesteryl [14C] oleate formed, Repeat 4” value (“cholesteryl … Repeat 4” for short) (0.01 uM compound) was 4.771 nanomoles formed per hour per milligram cell protein, the “cholesteryl … Repeat 1” value (0.03 uM compound) was 2.117 nanomoles formed per hour per milligram cell protein and the “cholesteryl … Repeat 2” value (0.03 uM compound) was 3.138 nanomoles formed per hour per milligram cell protein. For the same molecule, the “cholesteryl … Repeat 3” value (0.03 uM compound) was 2.06 nanomoles formed per hour per milligram cell protein, the “cholesteryl … Repeat 4” value (0.03 uM compound) was 3.899 nanomoles formed per hour per milligram cell protein and the “cholesteryl … Repeat 1” value (0.06 uM compound) was 1.347 nanomoles formed per hour per milligram cell protein. The “cholesteryl … Repeat 2” value (0.06 uM compound) was 1.367 nanomoles formed per hour per milligram cell protein, the “cholesteryl … Repeat 3” value (0.06 uM compound) was 2.476 nanomoles formed per hour per milligram cell protein and the “cholesteryl … Repeat 4” value (0.06 uM compound) was 3.208 nanomoles formed per hour per milligram cell protein. The “cholesteryl … Repeat 1” value (0.1 uM compound) was 0.6494 nanomoles formed per hour per milligram cell protein, the “cholesteryl … Repeat 2” value (0.1 uM compound) was 0.4243 nanomoles formed per hour per milligram cell protein and the “cholesteryl … Repeat 3” value (0.1 uM compound) was 0.5346 nanomoles formed per hour per milligram cell protein. The “cholesteryl … Repeat 4” value (0.1 uM compound) was 0.7537 nanomoles formed per hour per milligram cell protein, the “cholesteryl … Repeat 1” value (0.3 uM compound) was 0.1828 nanomoles formed per hour per milligram cell protein and the “cholesteryl … Repeat 2” value (0.3 uM compound) was 0.9513 nanomoles formed per hour per milligram cell protein. For the same molecule, the “cholesteryl … Repeat 3” value (0.3 uM compound) was 0.009558 nanomoles formed per hour per milligram cell protein, the “cholesteryl … Repeat 4” value (0.3 uM compound) was 0.01486 nanomoles formed per hour per milligram cell protein and the IC50 (read-out: IC50 (concentration at which each compound inhibited cholesterol esterification by 50%), 10% FCS, 4 h then 2 h [14C] oleate pulse) was 20 nM.
In the case of `CCC(C)n1ncn(-c2ccc(N3CCN(c4ccc(OCC5COC(Cn6cncn6)(c6ccc(Cl)cc6Cl)O5)cc4)CC3)cc2)c1=O` (stereo not drawn) [Itra-C], the “cholesteryl … Repeat 1” value (0.01 uM compound) is reported as 2.751 nanomoles formed per hour per milligram cell protein, the “cholesteryl … Repeat 2” value (0.01 uM compound) is reported as 4.364 nanomoles formed per hour per milligram cell protein and the “cholesteryl … Repeat 3” value (0.01 uM compound) is reported as 5.964 nanomoles formed per hour per milligram cell protein. The “cholesteryl … Repeat 4” value (0.01 uM compound) was 6.001 nanomoles formed per hour per milligram cell protein, the “cholesteryl … Repeat 1” value (0.03 uM compound) was 3.794 nanomoles formed per hour per milligram cell protein and the “cholesteryl … Repeat 2” value (0.03 uM compound) was 3.288 nanomoles formed per hour per milligram cell protein. For the same molecule, the “cholesteryl … Repeat 3” value (0.03 uM compound) was 5.048 nanomoles formed per hour per milligram cell protein, the “cholesteryl … Repeat 4” value (0.03 uM compound) was 4.017 nanomoles formed per hour per milligram cell protein and the “cholesteryl … Repeat 1” value (0.06 uM compound) was 2.064 nanomoles formed per hour per milligram cell protein. For the same molecule, the “cholesteryl … Repeat 2” value (0.06 uM compound) was 2.2038 nanomoles formed per hour per milligram cell protein, the “cholesteryl … Repeat 3” value (0.06 uM compound) was 2.593 nanomoles formed per hour per milligram cell protein and the “cholesteryl … Repeat 4” value (0.06 uM compound) was 3.086 nanomoles formed per hour per milligram cell protein. The “cholesteryl … Repeat 1” value (0.1 uM compound) was 1.063 nanomoles formed per hour per milligram cell protein, the “cholesteryl … Repeat 2” value (0.1 uM compound) was 0.9711 nanomoles formed per hour per milligram cell protein and the “cholesteryl … Repeat 3” value (0.1 uM compound) was 0.7465 nanomoles formed per hour per milligram cell protein. For the same molecule, the “cholesteryl … Repeat 4” value (0.1 uM compound) was 0.811 nanomoles formed per hour per milligram cell protein, the “cholesteryl … Repeat 1” value (0.3 uM compound) was 0.4254 nanomoles formed per hour per milligram cell protein and the “cholesteryl … Repeat 2” value (0.3 uM compound) was 0.7413 nanomoles formed per hour per milligram cell protein. For the same molecule, the “cholesteryl … Repeat 3” value (0.3 uM compound) was 0.1456 nanomoles formed per hour per milligram cell protein, the “cholesteryl … Repeat 4” value (0.3 uM compound) was 0.04925 nanomoles formed per hour per milligram cell protein and the IC50 (IC50 (concentration at which each compound inhibited cholesterol esterification by 50%), 10% FCS, 4 h then 2 h [14C] oleate pulse) was 35 nM.
